Common to all, as to type: cell-based
Assay [1] has as its system long-lived protein degradation in TFEB-overexpressing cells. In words: Degradation of long-lived proteins (FIG. 8). As to conditions: 3-MA added during 4 h incubation. On the procedure: FIG. 8 TFEB increases autophagic proteolysis. Rate of long-lived protein degradation in TFEB-overexpressing, TFEB-depleted and control cells in either normal or starved condition. 3-methyl adenine (3MA) was added where indicated (Error bars represent standard deviations. p value (*)<0.05).
Sub-confluent cells were incubated with L-U^14C-serine for 20 h and chased for 1 h with cold media to degrade short-lived proteins. Subsequently cells were incubated with either normal media or starvation media (eventually in the presence of 3-MA) for 4 h. The rate of long-lived protein degradation was calculated from the ratio of soluble radioactivity in the media to that insoluble in the acid-precipitable cell pellet.
The applicants next measured the rate of delivery of autophagosome to lysosome using an RFP-GFP tandem tagged LC3 protein (9), which discriminates early autophagic organelles (GFP-positive/mRFP-positive) from acidified autolysosomes (GFP-negative/mRFP-positive), as the GFP signal (but not the mRFP) is quenched inside acidic compartments (9). […] Functional evidence of TFEB role in the regulation of autophagy came from the observation that degradation of long-lived proteins was enhanced by TFEB overexpression, and reduced by TFEB knock-down. This enhancement was abolished by the autophagy inhibitor 3-methyl adenine (3-MA) (10) (FIG. 8).

The subject of assay [2] is mTORC1. Put plainly: mTORC1 activity by level of p-P70S6K in HeLa cells treated overnight (FIG. 19A). The protocol:
(§1) Immunoblotting of protein extracts isolated from HeLa cells treated overnight, as indicated. Membranes were probed with antibodies for p-T202/Y204-ERK1/2, ERK1/2, p-T389-S6K, and S6K to measure ERK and mTORC1 activities. […] FLAG immunoblotting of cytosolic and nuclear fractions isolated from TFEB-3×FLAG HeLa cells cultured in amino acid-free media and subsequently stimulated as indicated for at least 3 h. Correct subcellular fractionation was verified with H3 and tubulin antibodies. […] After 3 h at 37° C. in RPMI medium containing one of each of the compounds, the cells were washed, fixed, and stained with DAPI and photographed by using confocal automated microscopy (Opera high content system, Perkin Elmer). […] Scale bars represent 30 μm. […] The EC50 for each compound was calculated using Prism software (see Materials and Methods for details). […] Antibody used were p-T389-S6K, S6K and FLAG. […] HeLa cells stably expressing Flag-3×TFEB were infected with lentiviruses encoding a Short hairpin (Sh-) RNA targeting luciferase (control) or RagC and RagD mRNAs. […] TFEB localization was detected with a FLAG antibody, whereas tubulin and H3 were used as controls for the cytosolic and nuclear fraction, respectively; levels of S6K phosphorylation were used to test RagC and RagD knockdown efficiency.

The subject of assay [3] is TFEB. In words: Lysosomal stress: TFEB-3xFLAG nuclear/cytoplasmic fractionation immunoblot in HeLa and HEK-293T cells (FIG. 18). As to conditions: treated overnight; chloroquine 100 μM, Salicylihalamide A 2 μM. From the text: FIG. 18 Lysosomal stress induces TFEB nuclear translocation. […] Histone 3 (H3) and tubulin were used as nuclear and cytosolic markers, respectively. Blots are representative of triplicate experiments.
(§2) The mouse anti-TFEB monoclonal antibody was purchased from My Biosource catalogue No. MBS 120432. To generate anti-pS142 specific antibodies, rabbits were immunized with the following peptide coupled to KLH: AGNSAPN{pSer}[…]. Following the fourth immunization, rabbits were sacrificed and the serum was collected. Non-phosphospecific antibodies were depleted from the serum by circulation through a column containing the nonphosphorylated antigene. The phosphospecific antibodies were subsequently purified using a column containing the phosphorylated peptide. Cells were lysed with M-PER buffer (Thermo) containing protease and phosphatase inhibitors (Sigma); nuclear/cytosolic fractions were isolated as above described. Proteins were separated by SDS-PAGE (Invitrogen; reduced NuPAGE 4-12% Bis-tris Gel, MES SDS buffer). If needed, the gel was stained using 20 ml Imperial Protein Stain (Thermo Fisher) at room temperature for 1 h and de-stained with water. […]
TFEB subcellular localization was then analysed in HeLa and HEK-293T cells transiently transfected with a TFEB-3×FLAG plasmid and treated overnight with inhibitors of lysosomal function.
In general terms: A western blot detects proteins with antibodies after separation by electrophoresis.

In assay [4] the test system is TFEB. In words: TFEB molecular weight shift and localization in TFEB-3xFLAG HeLa cells stimulated with amino-acid rich medium plus inhibitor (FIG. 19B). As to conditions: Torin 1 250 nM, Rapamycin 2.5 μM, U0126 50 μM. The protocol: FIG. 19 mTORC1 regulates TFEB. (A) Lysosomal stress inhibits mTOR signaling. Immunoblotting of protein extracts isolated from HeLa cells treated overnight, as indicated. Membranes were probed with antibodies for p-T202/Y204-ERK1/2, ERK1/2, p-T389-S6K, and S6K to measure ERK and mTORC1 activities. […] FLAG immunoblotting of cytosolic and nuclear fractions isolated from TFEB-3×FLAG HeLa cells cultured in amino acid-free media and subsequently stimulated as indicated for at least 3 h. Correct subcellular fractionation was verified with H3 and tubulin antibodies. (C, D) Effects and dose—response curves of ERK and mTOR inhibitors on TFEB nuclear translocation. […] After 3 h at 37° C. in RPMI medium containing one of each of the compounds, the cells were washed, fixed, and stained with DAPI and photographed by using confocal automated microscopy (Opera high content system, Perkin Elmer). (C) Representative images of test concentrations for each compound. Scale bars represent 30 μm. […] The EC50 for each compound was calculated using Prism software (see Materials and Methods for details). (E) Amino acids induce TFEB molecular weight shift. Immunoblotting of protein extracts isolated from HEK-293T cells transfected either TFEB-3×FLAG or with an empty vector were nutrient starved and stimulated for 50 minutes with amino acids (a.a.). Antibody used were p-T389-S6K, S6K and FLAG. (F) Rag knockdown induces TFEB nuclear translocation. HeLa cells stably expressing Flag-3×TFEB were infected with lentiviruses encoding a Short hairpin (Sh-) RNA targeting luciferase (control) or RagC and RagD mRNAs. […] TFEB localization was detected with a FLAG antibody, whereas tubulin and H3 were used as controls for the cytosolic and nuclear fraction, respectively; levels of S6K phosphorylation were used to test RagC and RagD knockdown efficiency.
as §2

Assay [5] deals with TFEB. In words: High content TFEB-GFP nuclear translocation assay. As to conditions: Homo sapiens, TFEB-GFP HeLa cells. The protocol:
as §1
After 3 hours at 37° C. in RPMI medium cells were washed, fixed, and stained with DAPI. For the acquisition of the images, ten pictures per each well of the 384-well plate were taken by using confocal automated microscopy (Opera high content system, Perkin Elmer). A dedicated script was developed to perform the analysis of TFEB localization on the different images (Acapella software, Perkin Elmer). The script calculates the ratio value resulting from the average intensity of nuclear TFEB-GFP fluorescence divided by the average of the cytosolic intensity of TFEB-GFP fluorescence. The results were normalized using negative (RPMI medium) and positive (HBSS starvation) control samples in the same plate. The data are represented by the percentage of nuclear translocation at the different concentrations of each compound using Prism software (GraphPad software). The EC50 for each compound was calculated using non-linear regression fitting (Prism software).
In order to find additional small molecules able to induce the translocation of TFEB from the cytosol to the nucleus, the applicants developed a cell-based high content assay using stable HeLa cells overexpressing TFEB fused to the green fluorescent protein (TFEB-GFP). In the assay imaging of treated cells is acquired by an automated confocal microscope (OPERA system) and the analysis of those images with Acapella image software calculates the ratio of the average of fluorescence intensity of TFEB-GFP between the cytosol and nucleus of the cell (see Materials and methods for details). […] They tested ten concentrations for each inhibitor.

Assay [6] concerns TFEB. Put plainly: TFEB nuclear localization in starved HeLa cells overexpressing TFEB, re-stimulated with media plus supplements or inhibitors (nuclear fractionation, Flag blot, immunofluorescence). The following applies: for TFEB nuclear translocation compared to starved media alone: EBSS media supplemented with growth factor or cytokine (FIG. 2f). From the text:
(A) Scatter Plot graphs displaying the logarithmic value of the fold change differences in the relative expression levels of 51 autophagy-related genes in HeLa cells cultured in different conditions. X-axis=control group. Y-axis=treated group. Circles represent genes with increased (red) or decreased (green) fold change. Comparisons were as indicated. (B) Chromatin immunoprecipitation (ChIP) analysis. […] Values were normalized to the input and plotted as relative enrichment over a mock control. Experiments were performed in triplicate. (C) qPCR analysis of TFEB-target gene expression in normal, starved, and in TFEB-siRNA starved cells. GAPDH and HPRT represents housekeeping genes, while ATG10, ATG9A and ATG4D represent control genes (non-TFEB target genes). (D-F) HeLa cells stably overexpressing TFEB were left untreated or nutrient starved for 4 h. (D) Five fields containing 50-100 cells/each were analyzed for TFEB nuclear localization. […] (E) Cells were subjected to nuclear/cytosolic fractionation and blotted with Flag antibody. H3 and tubulin were used as nuclear and cytosolic markers, respectively. (F) Nuclear fractions were blotted with Flag and H3 (loading control) antibodies. (G) Western blot analysis of Flag, tubulin and H3 in nuclear extracts prepared from normal, starved and starved/stimulated with normal media cells for 1 h (normal) or pretreated with AP-2 (AKT inhibitor), Rapamycin (mTOR inhibitor) and U0126 (MEK inhibitor) 1 h prior to media stimulation. Total extracts were used to verify the efficiency of the inhibitors. […] Starvation was performed where indicated. (All error bars represent standard deviations. T-test (unpaired) p value (*)<0.05, (**)<0.01)
Cytosolic and nuclear fractions were subjected to Flag immunoblotting. […] Error bars represent standard deviations.
Cells were seeded at 50% of confluence in 6 well dishes and serum starved overnight (ON). Normal medium was added the following day either in presence of DMSO or kinase inhibitors. Subcellular fractionation was carried out as previously reported.
To identify the mechanism of starvation-induced activation of TFEB, the applicants analyzed its subcellular localization and post-translational modifications in starved cells.

[7] abbreviates: mobilization of cytosolic TFEB to the nucleus, 3 h at 37° C. in RPMI, ten concentrations 50 μM to 2.54 nM, 4 runs, read-out: Average EC50.

Like-named read-outs stand apart in the source and are kept apart here. Some results are limits rather than exact numbers.

By EC50 is commonly meant the concentration needed to bring the measured effect to its halfway point.

Turning to `Cn1cnc(N)c2ncnc1-2` [3-methyl adenine], the “enhancement of long-lived protein degradation by TFEB overexpression” value in assay [1] was “abolished”.

As for `CC/C=C\C=C/C(=O)N/C=C/C[C@H]1C[C@@H](O)[C@@H](C)C/C=C/Cc2cccc(O)c2C(=O)O1` [Salicylihalamide A], in assay [2], the “mTORC1 activity as level of p-P70S6K” value is recorded as “inhibited mTORC1 activity”. The “nuclear translocation of exogenously expressed TFEB” value in assay [3] is reported as “induced nuclear translocation”.

Consider `N#CC(=C(/N)Sc1ccccc1N)/C(C#N)=C(\N)Sc1ccccc1N` [U0126], for which the “TFEB molecular weight shift induced by nutrients” value in assay [4] is given as “only a partial TFEB molecular weight shift”. Moreover, the EC50 in assay [5] (3 h, ten concentrations 2.54 nM to 50 μM (FIG. 19D), read-out: EC50, TFEB nuclear translocation) was 80.4 µM. Moreover, in assay [6] (starved cells stimulated with normal medium supplemented with kinase inhibitor (FIG. 2g, 11b)), the TFEB nuclear localization entry is “TFEB nuclear localization, at level similar to starvation”.

Consider `COC(=O)Nc1ccc(-c2nc(N3CCOCC3)c3cnn(C4CCN(C(=O)OC)CC4)c3n2)cc1` [WYE354], for which the EC50 in assay [5] (setting [7]) was 7 to 15 µM.

In the case of `C=CC(=O)Nc1cccc(Oc2nc(Nc3ccc(N4CCN(C)CC4)cc3OC)ncc2Cl)c1` [WZ4002], the EC50 in assay [5] (setting [7]) lay within 7 to 15 µM.

Turning to `Cc1ccc(S(=O)(=O)Nc2nc3ccccc3nc2Nc2ccc3nsnc3c2)cc1` [XL147], in assay [5] (setting [7]), the EC50 is < 7 µM.

On to `COc1cc2c(Oc3ccc(NC(=O)C4(C(=O)Nc5ccc(F)cc5)CC4)cc3F)ccnc2cc1OCCCN1CCOCC1` [XL880 (GSK1363089)], for which, in assay [5] (setting [7]), the EC50 was < 7 µM.

As for `FC(F)c1nc2ccccc2n1-c1nc(N2CCOCC2)nc(N2CCOCC2)n1` [ZSTK474], in assay [5] (setting [7]), the EC50 was < 7 µM.

Consider `N#CC(=C(/N)Sc1ccccc1N)/C(C#N)=C(\N)Sc1ccccc1N` [drawing 34], for which, in assay [5] (setting [7]), the EC50 was > 15 µM.

As to “EGF: growth factor supplemented to EBSS media (NSDSECPLSHDGYCLHDGVCMYIEALDKYACNCVVGYIGERCQYRDLKWWELR; UniProt P01133 971-1023, looked up)”, the “TFEB nuclear translocation compared to starved media alone” value in assay [6] is listed as “significant inhibition”.

On to “LIF: cytokine supplemented to EBSS media”, for which the “TFEB nuclear translocation compared to starved media alone” value in assay [6] is “Almost no effect”.

Turning to insulin, the “TFEB nuclear translocation compared to starved media alone” value in assay [6] was “significant inhibition”.

The record behind these values is patent US20140038920A1, “TFEB PHOSPHORYLATION INHIBITORS AND USES THEREOF” (FONDAZIONE TELETHON, priority 2011, published 2014).
